Results on 4 compounds are retold here after publication PMC3117839, “Efficacy Study of Novel Diamidine Compounds in a Trypanosoma evansi Goat Model” (PLoS ONE, 2011).

Data set [1] deals with T. evansi. Nature of the data set: Curative efficacy in T. evansi experimentally infected goats (five month follow up, overall outcome). The format is in vivo, Trypanosoma evansi (Canaries (Rubio) strain) in goats. The procedure:
Various diagnostic tests were used to evaluate the curative efficacy of the compounds, over a five month follow up period. The haematocrit centrifugation technique, was utilised as the standard parasitological test. The serological CATT/T. evansi test was performed to determine the presence or absence of antibodies. As a validating molecular based technique, a mini-exon 18S ribosomal PCR method designed for the detection of parasite DNA was also applied.
Fresh camel blood (400 µl) was collected from the jugular vein of a camel and 200 µl volumes inoculated (i.p.) into two mice. Once a parasitaemia had established, blood was collected via cardiac puncture and mixed with phosphate buffered saline with glucose (PSG) to provide the T. evansi suspension used for experimental goat infection. Thereafter, all 25 goats were experimentally infected intravenously (i.v.), with 10^6 parasites/goat.
Goats were divided into 8 groups, where group 1 contained four goats whilst group's 2 to 8 each contained three goats. […] All test compounds were administered intra-muscularly with four applications, on days 32, 34, 36 and 38 post-infection. Thereafter, follow up diagnostic methods were carried out for five months post treatment.

Data set [2] deals with T. evansi. More on the design: method as in PMID 20149544. Particulars: cited from earlier work; for in vitro IC50: 72 hour assay against T. evansi; for estimated MIC (minimal inhibitory concentration): estimated at least four times the IC50.
Data set [3] is described as follows: Plasma drug levels and pharmacokinetic parameters in T. evansi infected goats (HPLC/MS-MS). The format is in vivo, goat. The procedure:
In addition, blood samples were taken shortly before each compound injection was applied, to determine the trough levels. All samples were centrifuged at 3000 g for ten minutes. Subsequently, the plasma was removed, placed into sterile polypropylene cryotubes and stored away from light at −80°C. Mass spectrometry analysis was performed on all plasma samples using 25 µl aliquots. Calibrators were prepared separately for each analyte. Stock solutions of diminazene, DB 75, DB 867 and DB1192 were prepared in water. Curves were then prepared and analysed in duplicate, at both the beginning and the end of the analytical run. Concentrations of diminazene, DB 75, DB 867 and DB 1192 were determined by Liquid Chromatography/Triple Quadrupole Mass Spectrometry (HPLC/MS-MS). The pharmacokinetic parameters were determined using Microsoft® Excel software, with a functional set of add-ins applied, together with a graphical programme (GraphPad Prism 5, GraphPad Software Inc, USA). The compound plasma levels can be seen in Figure 1 for a) the standard drug, diminazene, b) DB 1192, c) DB 75 and d) DB 867. The plasma samples taken were analysed by HPLC/MS-MS to determine the drug concentrations (in ng/ml). From these values, the averages from the experimental goats in each group were calculated and drug concentration versus time curves were plotted with a line of best fit applied, corresponding to either the high or low compound dose tested.

[4] abbreviates: 1.25 mg/kg i.m. x4, five month follow up.
Where [5] appears, read: 2.5 mg/kg i.m. x4, five month follow up.
[6] abbreviates: 1.25 mg/kg x4, 72 hours after final injection.
Setting [7] is: 2.5 mg/kg x4, 72 hours after final injection.
Setting [8] is: goat plasma, four applications of 1.25 mg/kg i.m., average plasma levels.
The mark [9] stands for this setting: goat plasma, four applications of 2.5 mg/kg i.m., average plasma levels.
Where [10] appears, read: 2.5 mg/kg x4, 192 hours after final injection.

Molecules are shown by their SMILES. Entries after “also recorded” stand apart in the source; their conditions may differ. Where two headings read alike, the source gives them in different places.

The term half-life denotes the time needed for the level to fall by half in the phase considered. Low readings indicate fast loss, high ones slow loss. By Cmax is commonly meant the maximum level reached in the sampled fluid or tissue. By MRT is commonly meant a mean duration of stay, worked out from the concentration-time curve. As for `N=C(N)c1ccc(/N=N/Nc2ccc(C(=N)N)cc2)cc1` [Diminazene, Diminazene aceturate, reference compound], in data set [1] (5 mg/kg i.m. x4, five month follow up), the curative efficacy result is recorded as “Complete curative efficacy”. For the same compound, in data set [2], the “in vitro IC50” value is 12.5 ng/mL and the “estimated MIC (minimal inhibitory concentration)” value was 50 ng/mL. The compound further had a half-life in data set [3] (Canarian, im, goat plasma, four applications of 5 mg/kg i.m., average plasma levels) of 59.1 h. Moreover, the AUC in data set [3] (Canarian, im, goat plasma, four applications of 5 mg/kg i.m., average plasma levels, read-out: AUC) stood at 194 µg·h/mL. In data set [3] (Canarian, im, goat plasma, four applications of 5 mg/kg i.m., average plasma levels, read-out: Cmax), the Cmax was at least 8640 ng/mL. The MRT in data set [3] (Canarian, im, goat plasma, four applications of 5 mg/kg i.m., average plasma levels, read-out: MRT) turned out to be 70.7 h. This compound also registered a concentration at 72 h in data set [3] (goat, plasma, intramuscular, 5 mg/kg x4, 72 hours after the end of treatment) of 1110 ng/mL. This compound also came in with a concentration at 192 h in data set [3] (goat, plasma, intramuscular, 5 mg/kg x4, 192 hours after final injection) of 568 ng/mL.

For the compound `N=C(N)c1ccc(-c2ccc(-c3ccc(C(=N)N)nc3)o2)cc1` [DB 867], in data set [1] (1.25 mg/kg i.m. x4), the “time to relapse post treatment” value stood at 4.5 months. The curative efficacy result in data set [1] (setting [4]) was “a relapse was seen during the final month of the follow up period”. Moreover, in data set [1] (setting [5]), the curative efficacy result is listed as “Complete curative efficacy; also recorded: cured; also recorded: curative efficacy was seen”. In data set [2], the “in vitro IC50” value is 1.7 ng/mL and the “estimated MIC (minimal inhibitory concentration)” value is 6.8 ng/mL. Further, the “concentration in goat plasma” value in data set [3] (setting [6]) was “above 1850 ng/ml”. Further, in data set [3] (setting [7]), the “concentration in goat plasma” value is reported as “above 1850 ng/ml”. Moreover, in data set [3] (setting [8]), the AUC was 381604, the Cmax was at least 3663 ng/mL, the MRT worked out at 87.9 h and the T1/2 was determined as 202.5 h. In data set [3] (setting [9]), this compound came in with an AUC of 360895, a Cmax of at least 3310 ng/mL, an MRT of 90.0 h and a T1/2 of 221.4 h.

In the case of `N=C(N)c1ccc(-c2ccc(-c3ccc(C(=N)N)cc3)o2)cc1` [DB 75], the curative efficacy result was “Complete cure; also recorded: complete curative efficacy” in data set [1] (setting [4]) and “Complete curative efficacy” in data set [1] (setting [5]). The “in vitro IC50” value in data set [2] is 2.3 ng/mL. Besides, in data set [2], the “estimated MIC (minimal inhibitory concentration)” value was 9.2 ng/mL. For the same compound, the “concentration in goat plasma” value in data set [3] (setting [6]) was 2223 ng/mL; in data set [3] (1.25 mg/kg x4, 192 hours after final injection), “above 1500 ng/ml”; in data set [3] (setting [7]), 1923 ng/mL; in data set [3] (setting [10]) it was “above 1500 ng/ml”. Besides, the AUC in data set [3] (setting [8]) is recorded as 394305; in data set [3] (setting [9]), 358215. The results for the Cmax in data set [3] (setting [8]) and in data set [3] (setting [9]) were at least 3115 ng/mL and at least 2530 ng/mL, respectively. Besides, the MRT in data set [3] (setting [8]) turned out to be 89.5 h; in data set [3] (setting [9]) it was 93.4 h. Also, the T1/2 in data set [3] (setting [8]) stood at 279.3 h; in data set [3] (setting [9]) it was 473.7 h.

`Cc1cc(C(=N)N)ccc1-c1cc2cc(C(=N)N)ccc2[nH]1` [DB 1192]: the curative efficacy result in data set [1] (setting [4]) and in data set [1] (setting [5]) was “incapable of curing goats; also recorded: not effective” in each case. Further, the “in vitro IC50” value in data set [2] was 10.5 ng/mL. Further, the “estimated MIC (minimal inhibitory concentration)” value in data set [2] is on record as “around 40 ng/ml”. Also, the results for the “concentration in goat plasma” value in data set [3] (setting [6]), in data set [3] (setting [7]) and in data set [3] (setting [10]) were 18 ng/mL, 32 ng/mL and 10 ng/mL, respectively. Further, the “time until plasma level fell below the therapeutic threshold” value in data set [3] (both doses (2.5 and 1.25 mg/kg), post treatment) was at most 24 h. Moreover, the figures for the AUC in data set [3] (setting [8]) and in data set [3] (setting [9]) were 4809 and 9861, respectively. Moreover, the maximum concentration (Cmax) in data set [3] (setting [8]) was at least 836 ng/mL; in data set [3] (setting [9]), at least 1563 ng/mL. Also, the mean residence time MRT in data set [3] (setting [8]) was determined as 52.3 h; in data set [3] (setting [9]), 38.4 h. Also, the T1/2 in data set [3] (setting [8]) turned out to be 37.0 h; in data set [3] (setting [9]), 30.5 h.
